Measured values reported in patent US4287206A, “Halogen derivatives of 8-hydroxycarboxylic acids; the processes for their preparation and medicaments in which they are present” (priority 1978, dated 1981).

Legend:
Format in all cases: in vivo
mice [1] = test: Motor activity in mice (activity meters with photoelectric cells); settings: comparison of isomers; 32 mg/kg orally; in particular stimulant action
Protocol: The motor activity was determined with the aid of activity meters having photoelectric cells (Boissier and Simon, Arch. int. Pharmacodyn. 1965, 158, 212-221). A minimum of 10 animals was always used per batch.
The mice are placed in the activity meter just after the oral or intraperitoneal administration of the product acccording to the invention, obtained in accordance with Example I. The motor activity is measured as from the introduction into the activity meter up to the 60th minute. The counters are read after 30 minutes, then reset to 0 and read every 10 minutes for 30 minutes.

mice [2] = test: Anti-oxotremorine activity in mice (hypothermia induced by oxotremorine); settings: at the doses studied, oral or intraperitoneal
Protocol: Anti-oxotremorine activity in mice
At time 0, the mice receive oxotremorine (0.5 mg.kg^-1) by intraperitoneal administration; after 30 minutes, either distilled water or the medicament according to the invention, obtained in accordance with Example I, is administered to the mice intraperitoneally or orally.
The mice are then observed and the trembling is rated from 0 to 3 as a function of its intensity, every 10 minutes for 30 minutes. Moreover, the existence of peripheral symptoms (tears, hypersialosis and defections) is observed for 2 hours, in the presence or absence of trembling. The rectal temperature is measured every 30 minutes for 2 hours, after administration of oxotremorine.

rats = test: Study of the stereotypies in rats; settings: rats
Protocol: Study of the stereotypies in rats
The tests were carried out on batches of 6 rats for each dose; immediately after the oral or intraperitoneal administration, the animals are placed in individual, transparent plastic 20×10×10 cm boxes provided with a pierced stainless steel lid. The stereotyped movements are rated from 0 to 3, in accordance with the method described by Simon and Chermat (J. Pharmacol. (Paris), 1972, 3, 235-238) every 10 minutes until they disappear in all the animals. The detailed curves are plotted and the surface area of the curve is calculated as described in the above reference.

mice [3] = test: Action on the toxicity of yohimbine to mice; settings: Table Va, yohimbine hydrochloride 25 mg.kg^-1 s.c.
Protocol: Action on the toxicity of yohimbine to mice
At time 0, the mice receive, by oral administration, either distilled water or the medicament according to the invention; after 30 minutes, yohimbine hydrochloride (25 mg.kg^-1) is administered subcutaneously to the mice. The mortality is followed every hour for 4 hours and then recorded after 24 hours.

Compound: CC1CC(c2ccc(Cl)cc2)C(c2ccccc2)C(=O)O1 (stereo not drawn) [100% of β, Trans-4-(4'-chlorophenyl)-6-methyl-3phenyl-3,4,5,6-tetrahydropyrone-2, IIIβ]
- activity compared with the mixture of 80 % of α and 20 % of β (mice [1]): more active

Compound: Threo-2-(4'-chlorophenyl)-4-hydroxy-1-phenylpentanecarbonitrile [Example II]
- trembling and peripheral symptoms caused by oxotremorine (mice [2]): did not cause any modification
- stereotypy activity, oral versus intraperitoneal administration (rats; figure): slightly greater on oral administration
- dose from which very significant stereotypies are present (rats; mean surface area of the curve (figure)): ≥ 8 mg/kg
- Mortality in % after the administration of yohimbine (mice [3]; 2 mg/kg oral, 4 hours): 0%
- Mortality in % after the administration of yohimbine (mice [3]; 2 mg/kg oral, 24 hours): 0%
- Mortality in % after the administration of yohimbine (mice [3]; 4 mg/kg oral, 4 hours): 0%
- Mortality in % after the administration of yohimbine (mice [3]; 4 mg/kg oral, 24 hours): 0%
- Mortality in % after the administration of yohimbine (mice [3]; 8 mg/kg oral, 4 hours): 10%
- Mortality in % after the administration of yohimbine (mice [3]; 8 mg/kg oral, 24 hours): 10%
- Mortality in % after the administration of yohimbine (mice [3]; 16 mg/kg oral, 4 hours): 20%
- Mortality in % after the administration of yohimbine (mice [3]; 16 mg/kg oral, 24 hours): 20%
- Mortality in % after the administration of yohimbine (mice [3]; 32 mg/kg oral, 4 hours): 25%
- Mortality in % after the administration of yohimbine (mice [3]; 32 mg/kg oral, 24 hours): 25%
- Mortality in % after the administration of yohimbine (mice [3]; 64 mg/kg oral, 4 hours): 30%
- Mortality in % after the administration of yohimbine (mice [3]; 64 mg/kg oral, 24 hours): 30%
- Mortality in % after the administration of yohimbine (mice [3]; 128 mg/kg oral, 4 hours): 60%
- Mortality in % after the administration of yohimbine (mice [3]; 128 mg/kg oral, 24 hours): 60%
- Mortality in % after the administration of yohimbine (mice [3]; 256 mg/kg oral, 4 hours): 70%
- Mortality in % after the administration of yohimbine (mice [3]; 256 mg/kg oral, 24 hours): 70%
